Test results reported in patent publication US20230117034A1, “PYRAZOLOTRIAZINES” (Bayer Aktiengesellschaft, priority 2019, published 2023).

Columns and labels:
[1] = target: T1, CDK2/CycE (Homo sapiens, UniProt P24941); assay: CDK2/CycE kinase assay (TR-FRET, 2 mM ATP); type: biochemical; conditions: 2 mM ATP (high ATP); median; read-out: CDK2/CyclinE, 2 mM ATP (high ATP), IC50 (median)
T1 construct: purchased ProQinase GmbH (Freiburg, Germany); host or cells: insect cells (Sf9)
Method in brief: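 GST-tagged human CDK2 and CycE from Sf9 cells, about 10 ng/ml, pre-incubated 15 min at 22 °C with compound in Tris/HCl pH 8.0 buffer. Reaction with 2 mM ATP and 0.75 µM biotinylated peptide for 25 min at 22 °C. Phospho-RB antibody TR-FRET (665/620 nm ratio) read after 1 h; data normalised to no-inhibitor and no-enzyme controls.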

[2] = target: T2, CDK12 (nuclear staining in CAL-120 cells) (Homo sapiens, UniProt Q9NYV4); assay: CDK12 nuclear protein level: immunofluorescence/high content analysis (CAL-120); type: cell-based; conditions: for DC50: CAL-120 cells, 24 h, immunofluorescence, 50% reduction of nuclear CDK12 staining intensity, median, read-out: CDK12 degradation IF, DC50- [mol/l] (median); for (IC50 CDK12 high ATP) to (Degradation DC50 CDK12) ratio: ratio of IC50 CDK12 high ATP kinase assay to DC50 CDK12 degradation (IF, CAL-120)
T2 construct: endogenous in cells; host or cells: CAL-120 human breast cancer cells (DSMZ ACC 459)
T2 sequence (Q9NYV4 whole entry): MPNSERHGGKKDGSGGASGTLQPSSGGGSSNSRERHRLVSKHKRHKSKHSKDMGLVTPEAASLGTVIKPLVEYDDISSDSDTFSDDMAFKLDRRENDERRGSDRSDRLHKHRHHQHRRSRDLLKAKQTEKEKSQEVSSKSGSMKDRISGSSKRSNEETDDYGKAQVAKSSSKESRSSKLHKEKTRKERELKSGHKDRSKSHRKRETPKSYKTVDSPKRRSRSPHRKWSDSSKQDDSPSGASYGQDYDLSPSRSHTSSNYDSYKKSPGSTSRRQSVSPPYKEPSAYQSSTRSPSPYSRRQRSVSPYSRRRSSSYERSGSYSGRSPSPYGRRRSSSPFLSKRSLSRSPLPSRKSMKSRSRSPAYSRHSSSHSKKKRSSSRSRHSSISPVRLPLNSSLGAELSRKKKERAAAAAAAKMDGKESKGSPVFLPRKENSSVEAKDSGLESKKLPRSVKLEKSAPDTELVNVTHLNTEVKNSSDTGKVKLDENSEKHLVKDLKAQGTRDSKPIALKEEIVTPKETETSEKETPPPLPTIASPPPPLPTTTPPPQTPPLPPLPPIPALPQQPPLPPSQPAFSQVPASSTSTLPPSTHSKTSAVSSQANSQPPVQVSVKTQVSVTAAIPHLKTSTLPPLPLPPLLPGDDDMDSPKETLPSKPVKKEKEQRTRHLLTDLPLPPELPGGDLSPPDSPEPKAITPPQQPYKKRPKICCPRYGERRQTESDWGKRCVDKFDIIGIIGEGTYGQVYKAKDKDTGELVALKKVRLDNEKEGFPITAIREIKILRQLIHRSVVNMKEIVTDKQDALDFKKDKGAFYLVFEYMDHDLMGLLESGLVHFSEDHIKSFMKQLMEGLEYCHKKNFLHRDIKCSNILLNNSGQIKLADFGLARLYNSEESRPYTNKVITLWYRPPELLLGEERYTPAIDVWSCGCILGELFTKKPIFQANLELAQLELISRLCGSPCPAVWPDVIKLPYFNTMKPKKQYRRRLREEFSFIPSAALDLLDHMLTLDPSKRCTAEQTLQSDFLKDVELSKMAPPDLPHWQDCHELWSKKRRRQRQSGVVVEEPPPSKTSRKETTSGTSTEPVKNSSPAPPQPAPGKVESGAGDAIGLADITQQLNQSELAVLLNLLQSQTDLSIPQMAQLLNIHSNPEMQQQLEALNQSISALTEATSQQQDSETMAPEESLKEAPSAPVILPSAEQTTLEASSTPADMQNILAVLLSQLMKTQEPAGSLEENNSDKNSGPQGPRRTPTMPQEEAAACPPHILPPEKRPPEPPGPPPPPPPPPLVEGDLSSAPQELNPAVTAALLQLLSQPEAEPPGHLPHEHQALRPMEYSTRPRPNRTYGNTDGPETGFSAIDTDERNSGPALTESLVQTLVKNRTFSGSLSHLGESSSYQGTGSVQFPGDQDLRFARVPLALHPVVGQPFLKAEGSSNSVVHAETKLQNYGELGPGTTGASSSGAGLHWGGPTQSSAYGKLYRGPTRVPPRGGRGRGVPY
T2 sequence (O75909 whole entry partner): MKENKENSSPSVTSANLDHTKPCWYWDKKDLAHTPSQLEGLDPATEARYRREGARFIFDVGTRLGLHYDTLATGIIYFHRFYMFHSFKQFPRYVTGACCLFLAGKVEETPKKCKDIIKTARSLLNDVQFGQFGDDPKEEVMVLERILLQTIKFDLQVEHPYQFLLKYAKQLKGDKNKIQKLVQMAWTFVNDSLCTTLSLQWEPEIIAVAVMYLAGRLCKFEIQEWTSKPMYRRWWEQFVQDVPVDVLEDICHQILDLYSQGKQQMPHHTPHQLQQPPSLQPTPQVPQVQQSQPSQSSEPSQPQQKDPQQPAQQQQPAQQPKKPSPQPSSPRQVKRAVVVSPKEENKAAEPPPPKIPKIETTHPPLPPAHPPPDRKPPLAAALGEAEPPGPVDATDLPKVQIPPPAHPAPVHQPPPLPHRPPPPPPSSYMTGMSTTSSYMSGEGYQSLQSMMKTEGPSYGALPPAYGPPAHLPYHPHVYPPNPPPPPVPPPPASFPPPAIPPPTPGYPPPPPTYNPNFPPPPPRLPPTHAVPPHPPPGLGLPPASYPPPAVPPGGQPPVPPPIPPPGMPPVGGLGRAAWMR
Method in brief: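 CAL-120 cells were treated with compound for 24 h at 37 °C, fixed with PFA and immunostained for CDK12. Nuclear CDK12 intensity was quantified by automated image analysis and normalized to DMSO and control. DC50 is the concentration giving 50% reduction of nuclear staining.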

[3] = target: T3, CYCLIN K (nuclear staining in CAL-120 cells) (Homo sapiens, UniProt O75909); assay: CYCLIN K nuclear protein level: immunofluorescence high content analysis (CAL-120); type: cell-based; conditions: 24 h, 50% reduction of nuclear CCNK staining intensity, median, read-out: CYCLIN K degradation IF, DC50-[mol/l] (median)
T3 construct: endogenous in cells; host or cells: CAL-120 human breast cancer cells (DSMZ ACC 459)
T3 sequence (O75909 whole entry): as the sequence (O75909 whole entry partner) above
T3 sequence (Q9NYV4 whole entry partner): as the sequence (Q9NYV4 whole entry) above
Method in brief: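 CAL-120 breast cancer cells treated in dose-response for 24 h at 37 °C, PFA-fixed and immunostained for cyclin K with Hoechst counterstain. Confocal imaging quantified nuclear intensity; DC50 is the concentration giving 50% reduction of nuclear CCNK staining, normalized to DMSO and control.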

Structure (SMILES): Cc1ccc2[nH]c(CNc3nc(N4CCN(C)CC4)nc4c(C5CC5)cnn34)nc2c1 [Example 210, 8-cyclopropyl-N-[(5-methyl-1H-benzimidazol-2-yl)methyl]-2-(4-methylpiperazin-1-yl)pyrazolo[1,5-a][1,3,5]triazin-4-amine]
- IC50 [1]: > 20000 nM
- DC50 [2]: 1.41 nM
- (IC50 CDK12 high ATP) to (Degradation DC50 CDK12) ratio [2]: >14143
- DC50 [3]: 0.199 nM

Structure (SMILES): C[C@@H]1CN(c2nc(NCc3nc4c(F)c(F)ccc4[nH]3)n3ncc(C4CC4)c3n2)C[C@H](C)N1 [Example 170, 8-cyclopropyl-N-[(4,5-difluoro-1H-benzimidazol-2-yl)methyl]-2-[(3R,5S)-3,5-dimethylpiperazin-1-yl]pyrazolo[1,5-a][1,3,5]triazin-4-amine]
- IC50 [1]: > 20000 nM
- DC50 [2]: 0.574 nM
- (IC50 CDK12 high ATP) to (Degradation DC50 CDK12) ratio [2]: 5303
- DC50 [3]: 0.415 nM

Structure (SMILES): Cc1ccc2[nH]c(CNc3nc(N4C[C@@H]5CCCN[C@@H]5C4)nc4c(Br)cnn34)nc2c1 [Example 203, 8-bromo-N-[(5-methyl-1H-benzimidazol-2-yl)methyl]-2-[(4aS, 7aS)-octahydro-6H-pyrrolo[3,4-b]pyridin-6-yl]pyrazolo[1,5-a][1,3,5]triazin-4-amine]
- IC50 [1]: 9300 nM
- DC50 [2]: 0.64 nM
- (IC50 CDK12 high ATP) to (Degradation DC50 CDK12) ratio [2]: 13757
- DC50 [3]: 0.119 nM

Structure (SMILES): COc1cccc2[nH]c(CNc3nc(N4C[C@H]5C[C@@H]4CO5)nc4c(C5CC5)cnn34)nc12 [Example 198, 8-cyclopropyl-N-[(4-methoxy-1H-benzimidazol-2-yl)methyl]-2-[(1R,4R)-2-oxa-5-azabicyclo[2.2.1]heptan-5-yl]pyrazolo[1,5-a][1,3,5]triazin-4-amine]
- IC50 [1]: 9940 nM
- DC50 [2]: 34.9 nM
- (IC50 CDK12 high ATP) to (Degradation DC50 CDK12) ratio [2]: 214

Structure (SMILES): CN(C)[C@@H]1CCN(c2nc(NCc3nc4ccccc4[nH]3)n3ncc(Br)c3n2)C1 [Example 178, N-[(1H-benzimidazol-2-yl)methyl]-8-bromo-2-[(3R)-3-(dimethylamino)pyrrolidin-1-yl]pyrazolo[1,5-a][1,3,5]triazin-4-amine]
- IC50 [1]: > 20000 nM
- DC50 [2]: 25.5 nM
- (IC50 CDK12 high ATP) to (Degradation DC50 CDK12) ratio [2]: >783

Structure (SMILES): CN1CC2CCC(C1)N2c1nc(NCc2nc3ccccc3[nH]2)n2ncc(Br)c2n1 [Example 226, N-(1H-benzimidazol-2-ylmethyl)-8-bromo-2-(3-methyl-3,8-diazabicyclo[3.2.1]octan-8-yl)pyrazolo[1,5-a][1,3,5]triazin-4-amine]
- IC50 [1]: > 20000 nM
- DC50 [2]: 27.6 nM
- (IC50 CDK12 high ATP) to (Degradation DC50 CDK12) ratio [2]: >725
- DC50 [3]: 3.89 nM

Structure (SMILES): OC1CCCN(c2nc(NCc3nc4ccccc4[nH]3)n3ncc(Br)c3n2)C1 (racemic) [Example 16, (rac)-1-(4-{[(1H-benzimidazol-2-yl)methyl]amino}-8-bromopyrazolo[1,5-a][1,3,5]triazin-2-yl)piperidin-3-ol]
- IC50 [1]: 1500 nM
- DC50 [2]: 4.54 nM
- (IC50 CDK12 high ATP) to (Degradation DC50 CDK12) ratio [2]: 1528

Structure (SMILES): OC1(C(F)(F)F)CCN(c2nc(NCc3nc4ccccc4[nH]3)n3ncc(Br)c3n2)C1 (stereo not shown) [Example 200, 1-[4-(1H-benzimidazol-2-ylmethylamino)-8-bromo-pyrazolo[1,5-a][1,3,5]triazin-2-yl]-3-(trifluoromethyl)pyrrolidin-3-ol]
- IC50 [1]: 4630 nM
- DC50 [2]: 117 nM
- (IC50 CDK12 high ATP) to (Degradation DC50 CDK12) ratio [2]: 37

Structure (SMILES): O[C@H]1CCN(c2nc(NCc3nc4ccccc4[nH]3)n3ncc(Br)c3n2)C1 [Example 224, (3S)-1-(4-{[(1H-benzimidazol-2-yl)methyl]amino}-8-bromopyrazolo[1,5-a][1,3,5]triazin-2-yl)pyrrolidin-3-ol]
- IC50 [1]: 7750 nM
- DC50 [2]: 38.4 nM
- (IC50 CDK12 high ATP) to (Degradation DC50 CDK12) ratio [2]: 407

Structure (SMILES): OCCNc1nc(NCc2nc3ccccc3[nH]2)n2ncc(Br)c2n1 [Example 228, 2-[(4-{[(1H-benzimidazol-2-yl)methyl]amino}-8-bromopyrazolo[1,5-a][1,3,5]triazin-2-yl)amino]ethan-1-ol]
- IC50 [1]: 9210 nM
- DC50 [2]: 47.1 nM
- (IC50 CDK12 high ATP) to (Degradation DC50 CDK12) ratio [2]: >425

Structure (SMILES): Cc1cc(-c2cnn3c(NCc4nc5ccccc5[nH]4)nc(N4CCN(C)CC4)nc23)ccn1 [Example 243, N-[(1H-benzimidazol-2-yl)methyl]-2-(4-methylpiperazin-1-yl)-8-(2-methylpyridin-4-yl)pyrazolo[1,5-a][1,3,5]triazin-4-amine]
- IC50 [1]: > 20000 nM
- DC50 [2]: 267 nM
- (IC50 CDK12 high ATP) to (Degradation DC50 CDK12) ratio [2]: >75

Structure (SMILES): CCN(C)c1nc(NCc2nc3ccccc3[nH]2)n2ncc(Br)c2n1 [Example 233, N4-(1H-benzimidazol-2-ylmethyl)-8-bromo-N2-ethyl-N2-methyl-pyrazolo[1,5-a][1,3,5]triazine-2,4-diamine]
- IC50 [1]: 5350 nM
- DC50 [2]: 103 nM
- (IC50 CDK12 high ATP) to (Degradation DC50 CDK12) ratio [2]: 73

Structure (SMILES): CC1(O)CCN(c2nc(NCc3nc4ccccc4[nH]3)n3ncc(Br)c3n2)C1 (stereo not shown) [Example 225, 1-[4-(1H-benzimidazol-2-ylmethylamino)-8-bromo-pyrazolo[1,5-a][1,3,5]triazin-2-yl]-3-methyl-pyrrolidin-3-ol]
- IC50 [1]: 5390 nM
- DC50 [2]: 22.1 nM
- (IC50 CDK12 high ATP) to (Degradation DC50 CDK12) ratio [2]: 466

Structure (SMILES): O=C1CN(c2nc(NCc3nc4ccccc4[nH]3)n3ncc(Br)c3n2)CCN1 [Example 167, 4-(4-{[(1H-benzimidazol-2-yl)methyl]amino}-8-bromopyrazolo[1,5-a][1,3,5]triazin-2-yl)piperazin-2-one]
- IC50 [1]: 15900 nM
- DC50 [2]: 16.9 nM
- (IC50 CDK12 high ATP) to (Degradation DC50 CDK12) ratio [2]: 420

Structure (SMILES): CN(C)[C@H]1CCN(c2nc(NCc3nc4ccccc4[nH]3)n3ncc(Br)c3n2)C1 [Example 177, N-[(1H-benzimidazol-2-yl)methyl]-8-bromo-2-[(3S)-3-(dimethylamino)pyrrolidin-1-yl]pyrazolo[1,5-a][1,3,5]triazin-4-amine]
- IC50 [1]: > 20000 nM
- DC50 [2]: 35.7 nM
- (IC50 CDK12 high ATP) to (Degradation DC50 CDK12) ratio [2]: >561

Structure (SMILES): CN(CCN1CCCC1)c1nc(NCc2nc3ccccc3[nH]2)n2ncc(Br)c2n1 [Example 239, N4-(1H-benzimidazol-2-ylmethyl)-8-bromo-N2-methyl-N2-(2-pyrrolidin-1-ylethyl)pyrazolo[1,5-a][1,3,5]triazine-2,4-diamine]
- IC50 [1]: > 20000 nM
- DC50 [2]: 347 nM
- (IC50 CDK12 high ATP) to (Degradation DC50 CDK12) ratio [2]: >58

Structure (SMILES): Brc1cnn2c(NCc3nc4ccccc4[nH]3)nc(NCCN3CCCC3)nc12 [Example 235, N4-(1H-benzimidazol-2-ylmethyl)-8-bromo-N2-(2-pyrrolidin-1-ylethyl)pyrazolo[1,5-a][1,3,5]triazine-2,4-diamine]
- IC50 [1]: > 20000 nM
- DC50 [2]: 104 nM
- (IC50 CDK12 high ATP) to (Degradation DC50 CDK12) ratio [2]: >192

Structure (SMILES): COCCNc1nc(NCc2nc3ccccc3[nH]2)n2ncc(Br)c2n1 [Example 230, N4-(1H-benzimidazol-2-ylmethyl)-8-bromo-N2-(2-methoxyethyl)pyrazolo[1,5-a][1,3,5]triazine-2,4-diamine]
- IC50 [1]: 10100 nM
- DC50 [2]: 66 nM
- (IC50 CDK12 high ATP) to (Degradation DC50 CDK12) ratio [2]: >303

Structure (SMILES): CN1CCN(c2nc(NCc3nc4ccccc4[nH]3)n3ncc(-c4ccncc4)c3n2)CC1 [Example 242, N-[(1H-benzimidazol-2-yl)methyl]-2-(4-methylpiperazin-1-yl)-8-(pyridin-4-yl)pyrazolo[1,5-a][1,3,5]triazin-4-amine]
- IC50 [1]: > 20000 nM
- DC50 [2]: 107 nM
- (IC50 CDK12 high ATP) to (Degradation DC50 CDK12) ratio [2]: >188

Structure (SMILES): CC(C)c1cnn2c(NCc3nc4ccccc4[nH]3)nc(Nc3ccccc3)nc12 [Example 13, N^4-[(1H-benzimidazol-2-yl)methyl]-N^2-phenyl-8-(propan-2-yl)pyrazolo[1,5-a][1,3,5]triazine-2,4-diamine]
- IC50 [1]: > 20000 nM
- DC50 [2]: 43.8 nM
- (IC50 CDK12 high ATP) to (Degradation DC50 CDK12) ratio [2]: >457

Structure (SMILES): CN(C)C1CCN(c2nc(NCc3nc4ccccc4[nH]3)n3ncc(Br)c3n2)CC1 [Example 201, N-[(1H-benzimidazol-2-yl)methyl]-8-bromo-2-[4-(dimethylamino)piperidin-1-yl]pyrazolo[1,5-a][1,3,5]triazin-4-amine]
- IC50 [1]: > 20000 nM
- DC50 [2]: 61.3 nM
- (IC50 CDK12 high ATP) to (Degradation DC50 CDK12) ratio [2]: >326

Structure (SMILES): CO[C@@H]1CCN(c2nc(NCc3nc4ccccc4[nH]3)n3ncc(Br)c3n2)C1 [Example 223, N-[(1H-benzimidazol-2-yl)methyl]-8-bromo-2-[(3R)-3-methoxypyrrolidin-1-yl]pyrazolo[1,5-a][1,3,5]triazin-4-amine]
- IC50 [1]: 14400 nM
- DC50 [2]: 57.6 nM
- (IC50 CDK12 high ATP) to (Degradation DC50 CDK12) ratio [2]: >287

Structure (SMILES): CC(C)c1cnn2c(NCc3nc4ccccc4[nH]3)nc(Nc3ccncc3)nc12 [Example 14, N^4-[(1H-benzimidazol-2-yl)methyl]-8-(propan-2-yl)-N^2-(pyridin-4-yl)pyrazolo[1,5-a][1,3,5]triazine-2,4-diamine]
- IC50 [1]: > 20000 nM
- DC50 [2]: 14.6 nM
- (IC50 CDK12 high ATP) to (Degradation DC50 CDK12) ratio [2]: >1123
